1 molecule from patent US5342850A, “Thiazolidine-2,4-dione derivatives, their salts and their preparation processes” (Kyorin Pharmaceutical Co., Ltd., priority 1991, dated 1994) can be followed below.

In assay [1] the test system is blood glucose. The assay is described as follows: Enhancement of insulin sensitivity in rats. The format is in vivo. Particulars: 10 mg/kg/day p.o. once daily for 5 days; fasted 18 hours; insulin 0.1 unit/kg i.p.; n=5; *P < 0.01. The method, then:
Blood samples were collected from the tail vein 0 and 1 hour after the injection of insulin for the determination of blood glucose (Table 1).

Assay [2] deals with blood glucose. Description: Improvement of glucose tolerance in genetically obese mice (OGTT). Format: in vivo, Genetically obese mice (CS57BL ob/ob mice). Particulars: fasted 18 hours, 2 g/kg glucose orally, blood at 0, 30, 60, 120 min. The method, then: Improvement of glucose tolerance in genetically obese mice
Genetically obese mice (CS57BL ob/ob mice) were orally administered with the compound of Example 23 once daily for 5 days at 10, 30 or 100 mg/kg/day, respectively. They were fasted for 18 hours and then 2 g/kg of glucose was orally administered. Blood samples were collected from the tail vein 0, 30, 60 and 120 minutes after the administration of glucose for the determination of blood glucose (Table 2).

For assay [3], the target named is T1, aldose reductase extracted from rat lens (Rattus norvegicus, UniProt P07943).
T1 construct: aldose reductase extracted from rat lens; from tissue; host or cells: rat lens
Description: Inhibition of aldose reductase in vitro. The format is biochemical. Particulars: method of Hyman and Kinoshita. From the text: Inhibition of aldose reductase in vitro
According to the method of Hyman and Kinoshita (J. Biol. Chem., 240, 877, 1965), inhibitory activity of the compound of Example 23 on aldose reductase extracted from rat lens was investigated. As a result, the following IC50 value was obtained (Table 3).

In assay [4] the test system is sorbitol content in nerve. Description: Inhibition on sorbitol accumulation in nerve of diabetic rats. Format: in vivo. Particulars: Rattus norvegicus, po, 336 h, streptozotocin rats, 4, 16 or 64 mg/kg/day p.o. once daily 2 weeks. As to the method: (§1) Inhibition on sorbitol accumulation in tissues of diabetic rats
(§2) After diabetic rats were prepared by injecting streptozotocin, they were orally administered with the compound of Example 23 once daily 2 weeks at 4, 16 or 64 mg/kg/day, respectively. The sorbitol content in nerve and retina was determined to calculate ED50 value (Table 4).

Assay [5] has as its system sorbitol content in retina. Description: Inhibition on sorbitol accumulation in retina of diabetic rats. Format: in vivo. Particulars: Rattus norvegicus, po, 336 h, streptozotocin rats, 4, 16 or 64 mg/kg/day p.o. once daily 2 weeks. The method, then:
as §1, §2

On to `O=C1NC(=O)C(c2ccc(NC(=O)c3ccc(Cl)cc3Cl)cc2)S1` (stereo not shown) [Example 23], for which the “0 hour value - 1 hour value (blood glucose)” value in the assay on blood glucose [1] worked out at 19.4 ± 1.5 mg %. In addition, the entries for the “OGTT (% of control)” value in the assay on blood glucose [2] (10 mg/kg/day p.o. once daily for 5 days), in the assay on blood glucose [2] (30 mg/kg/day p.o. once daily for 5 days) and in the assay with blood glucose [2] (100 mg/kg/day p.o. once daily for 5 days) were 93.5 % of control, 89.2 % of control and 74.1 % of control, respectively. Half-maximal inhibition in assay [3] (IC50) required 0.09 µM. Further, the values for the ED50 in assay [4] and in assay [5] were 14.5 mg/kg and 26.5 mg/kg, respectively.
